# Experimental data: paper PMC6138237, “Machine intelligence decrypts β-lapachone as an allosteric 5-lipoxygenase inhibitor” (Chemical Science, 2018)
# pIC50: −log10 of the molar value. Read-outs that look alike come from different tables or passages of the source.
# Columns and labels:
# 5-LO = target: T1, 5-LO (Homo sapiens, UniProt P09917); experiment: 5-LO inhibition assay, Cerep (Method A, indirect fluorogenic readout, Rhodamine 123); assay type: biochemical
# T1 sequence (P09917 1-674): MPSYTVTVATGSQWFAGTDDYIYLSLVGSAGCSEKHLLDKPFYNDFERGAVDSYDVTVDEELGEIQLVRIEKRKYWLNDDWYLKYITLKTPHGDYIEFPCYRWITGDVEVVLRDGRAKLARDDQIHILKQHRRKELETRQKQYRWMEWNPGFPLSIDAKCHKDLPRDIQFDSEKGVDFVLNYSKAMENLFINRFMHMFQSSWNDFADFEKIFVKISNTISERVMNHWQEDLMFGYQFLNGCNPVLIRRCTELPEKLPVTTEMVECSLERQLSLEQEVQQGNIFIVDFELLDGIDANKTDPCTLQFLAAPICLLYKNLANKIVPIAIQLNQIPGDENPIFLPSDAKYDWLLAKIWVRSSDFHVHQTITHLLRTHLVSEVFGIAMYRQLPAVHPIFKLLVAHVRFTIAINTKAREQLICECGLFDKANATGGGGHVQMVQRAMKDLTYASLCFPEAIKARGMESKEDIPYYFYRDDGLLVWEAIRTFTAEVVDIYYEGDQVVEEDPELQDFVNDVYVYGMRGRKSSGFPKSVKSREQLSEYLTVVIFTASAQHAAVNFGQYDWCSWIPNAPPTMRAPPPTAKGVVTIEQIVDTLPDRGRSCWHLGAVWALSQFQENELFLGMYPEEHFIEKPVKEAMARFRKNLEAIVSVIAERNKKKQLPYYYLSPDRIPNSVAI
# 12-LO = target: T2, 12-LO (Homo sapiens, UniProt P18054); experiment: 12-LO inhibition assay, Cerep (Method A, photometry); assay type: biochemical
# T2 sequence (P18054 1-663): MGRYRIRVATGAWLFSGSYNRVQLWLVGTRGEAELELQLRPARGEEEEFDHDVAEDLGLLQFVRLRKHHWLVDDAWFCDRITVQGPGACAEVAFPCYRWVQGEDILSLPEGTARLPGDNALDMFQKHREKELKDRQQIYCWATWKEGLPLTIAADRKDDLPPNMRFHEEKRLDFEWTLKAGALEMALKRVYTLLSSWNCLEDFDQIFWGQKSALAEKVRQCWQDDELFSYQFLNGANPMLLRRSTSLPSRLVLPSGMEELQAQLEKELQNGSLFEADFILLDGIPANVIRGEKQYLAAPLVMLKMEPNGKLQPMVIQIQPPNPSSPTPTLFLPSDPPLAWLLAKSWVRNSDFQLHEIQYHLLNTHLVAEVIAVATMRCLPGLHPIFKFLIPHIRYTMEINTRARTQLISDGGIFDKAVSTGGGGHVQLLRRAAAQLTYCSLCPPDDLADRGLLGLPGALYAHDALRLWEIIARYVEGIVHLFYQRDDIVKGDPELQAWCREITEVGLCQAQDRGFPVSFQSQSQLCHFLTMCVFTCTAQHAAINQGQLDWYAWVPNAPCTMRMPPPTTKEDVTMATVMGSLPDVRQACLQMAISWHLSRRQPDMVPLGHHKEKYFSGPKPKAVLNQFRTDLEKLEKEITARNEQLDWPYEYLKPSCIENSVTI
# TRPM8 = target: T3, TRPM8 (Homo sapiens, UniProt Q7Z2W7); experiment: TRPM8 functional antagonist assay, Cerep (icilin 100 nM); assay type: cell-based
# T3 construct: Cerep, SA (fee-for-service assay) printed G018533 (citation number 33 glued on)
# T3 sequence (Q7Z2W7 whole entry): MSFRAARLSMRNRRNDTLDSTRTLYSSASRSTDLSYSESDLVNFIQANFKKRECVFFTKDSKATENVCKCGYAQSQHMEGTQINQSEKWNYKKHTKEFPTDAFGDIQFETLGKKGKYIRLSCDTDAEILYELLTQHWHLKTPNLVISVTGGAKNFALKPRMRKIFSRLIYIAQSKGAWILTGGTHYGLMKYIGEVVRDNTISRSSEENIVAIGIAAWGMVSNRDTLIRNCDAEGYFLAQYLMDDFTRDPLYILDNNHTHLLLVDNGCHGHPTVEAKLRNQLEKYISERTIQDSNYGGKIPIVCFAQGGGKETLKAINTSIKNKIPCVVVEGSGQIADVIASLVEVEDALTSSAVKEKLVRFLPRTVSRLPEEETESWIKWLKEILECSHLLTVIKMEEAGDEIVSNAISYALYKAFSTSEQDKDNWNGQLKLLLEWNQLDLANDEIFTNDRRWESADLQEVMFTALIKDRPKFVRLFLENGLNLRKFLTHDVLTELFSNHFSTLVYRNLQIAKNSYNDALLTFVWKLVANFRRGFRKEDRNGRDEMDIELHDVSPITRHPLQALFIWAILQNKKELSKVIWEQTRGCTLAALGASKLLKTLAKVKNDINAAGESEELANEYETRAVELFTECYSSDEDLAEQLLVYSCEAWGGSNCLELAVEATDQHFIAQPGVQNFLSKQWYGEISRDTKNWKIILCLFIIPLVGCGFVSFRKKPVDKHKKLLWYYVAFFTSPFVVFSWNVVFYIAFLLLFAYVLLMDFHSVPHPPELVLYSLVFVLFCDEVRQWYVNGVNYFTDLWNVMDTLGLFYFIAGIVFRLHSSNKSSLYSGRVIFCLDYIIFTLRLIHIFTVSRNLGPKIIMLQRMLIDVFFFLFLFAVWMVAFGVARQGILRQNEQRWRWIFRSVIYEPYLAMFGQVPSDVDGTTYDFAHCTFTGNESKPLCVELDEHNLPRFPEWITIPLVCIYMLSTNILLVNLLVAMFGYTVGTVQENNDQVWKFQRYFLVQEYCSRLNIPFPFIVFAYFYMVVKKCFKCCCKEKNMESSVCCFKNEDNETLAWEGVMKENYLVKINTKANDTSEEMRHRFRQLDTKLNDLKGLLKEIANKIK
# IKKα = target: T4, IKKα (Homo sapiens, UniProt O15111); experiment: ExpresS Diversity Kinase Profile, Cerep (LANCE): IKKα; assay type: biochemical
# T4 sequence (O15111 1-745): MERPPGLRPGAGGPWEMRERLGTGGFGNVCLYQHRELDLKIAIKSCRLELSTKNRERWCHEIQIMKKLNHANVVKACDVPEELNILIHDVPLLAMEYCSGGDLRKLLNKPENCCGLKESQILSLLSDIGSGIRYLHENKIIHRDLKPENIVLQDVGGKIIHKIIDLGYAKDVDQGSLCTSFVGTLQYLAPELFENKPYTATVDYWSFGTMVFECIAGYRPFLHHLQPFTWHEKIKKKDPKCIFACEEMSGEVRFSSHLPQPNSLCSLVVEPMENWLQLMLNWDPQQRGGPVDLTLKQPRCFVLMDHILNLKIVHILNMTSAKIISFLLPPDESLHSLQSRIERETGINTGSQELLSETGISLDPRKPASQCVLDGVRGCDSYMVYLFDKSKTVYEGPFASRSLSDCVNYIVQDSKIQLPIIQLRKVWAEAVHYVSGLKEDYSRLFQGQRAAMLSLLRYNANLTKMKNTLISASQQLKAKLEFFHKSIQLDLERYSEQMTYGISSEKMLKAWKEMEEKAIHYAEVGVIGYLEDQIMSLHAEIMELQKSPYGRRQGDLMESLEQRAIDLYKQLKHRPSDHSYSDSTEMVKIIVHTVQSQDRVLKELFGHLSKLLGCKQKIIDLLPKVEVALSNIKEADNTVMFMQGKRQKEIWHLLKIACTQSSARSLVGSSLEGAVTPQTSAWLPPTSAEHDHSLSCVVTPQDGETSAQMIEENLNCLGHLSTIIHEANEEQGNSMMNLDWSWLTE
# PLK1 = PLK1 (Homo sapiens, UniProt P53350); experiment: ExpresS Diversity Kinase Profile, Cerep (LANCE): PLK1; assay type: biochemical
# PLK1, sequence (P53350 whole entry): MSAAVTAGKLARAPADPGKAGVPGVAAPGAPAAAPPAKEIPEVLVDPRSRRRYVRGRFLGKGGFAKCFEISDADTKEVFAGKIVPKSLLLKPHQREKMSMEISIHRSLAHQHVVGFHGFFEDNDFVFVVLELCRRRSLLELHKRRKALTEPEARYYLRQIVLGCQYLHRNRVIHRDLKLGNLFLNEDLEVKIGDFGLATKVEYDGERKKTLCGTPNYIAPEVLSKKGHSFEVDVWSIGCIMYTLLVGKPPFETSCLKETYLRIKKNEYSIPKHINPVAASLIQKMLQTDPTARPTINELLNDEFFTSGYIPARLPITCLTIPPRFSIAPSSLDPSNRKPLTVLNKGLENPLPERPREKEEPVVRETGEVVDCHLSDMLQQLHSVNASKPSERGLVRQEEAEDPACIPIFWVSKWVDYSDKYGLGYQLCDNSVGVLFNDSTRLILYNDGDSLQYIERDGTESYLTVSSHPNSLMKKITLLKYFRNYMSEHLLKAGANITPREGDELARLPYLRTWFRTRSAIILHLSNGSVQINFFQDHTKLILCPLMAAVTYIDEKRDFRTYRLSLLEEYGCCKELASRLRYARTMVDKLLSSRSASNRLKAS
# FGFR2 = FGFR2 (Homo sapiens, UniProt P21802); experiment: ExpresS Diversity Kinase Profile, Cerep (LANCE): FGFR2; assay type: biochemical
# FGFR2, sequence (P21802 22-821): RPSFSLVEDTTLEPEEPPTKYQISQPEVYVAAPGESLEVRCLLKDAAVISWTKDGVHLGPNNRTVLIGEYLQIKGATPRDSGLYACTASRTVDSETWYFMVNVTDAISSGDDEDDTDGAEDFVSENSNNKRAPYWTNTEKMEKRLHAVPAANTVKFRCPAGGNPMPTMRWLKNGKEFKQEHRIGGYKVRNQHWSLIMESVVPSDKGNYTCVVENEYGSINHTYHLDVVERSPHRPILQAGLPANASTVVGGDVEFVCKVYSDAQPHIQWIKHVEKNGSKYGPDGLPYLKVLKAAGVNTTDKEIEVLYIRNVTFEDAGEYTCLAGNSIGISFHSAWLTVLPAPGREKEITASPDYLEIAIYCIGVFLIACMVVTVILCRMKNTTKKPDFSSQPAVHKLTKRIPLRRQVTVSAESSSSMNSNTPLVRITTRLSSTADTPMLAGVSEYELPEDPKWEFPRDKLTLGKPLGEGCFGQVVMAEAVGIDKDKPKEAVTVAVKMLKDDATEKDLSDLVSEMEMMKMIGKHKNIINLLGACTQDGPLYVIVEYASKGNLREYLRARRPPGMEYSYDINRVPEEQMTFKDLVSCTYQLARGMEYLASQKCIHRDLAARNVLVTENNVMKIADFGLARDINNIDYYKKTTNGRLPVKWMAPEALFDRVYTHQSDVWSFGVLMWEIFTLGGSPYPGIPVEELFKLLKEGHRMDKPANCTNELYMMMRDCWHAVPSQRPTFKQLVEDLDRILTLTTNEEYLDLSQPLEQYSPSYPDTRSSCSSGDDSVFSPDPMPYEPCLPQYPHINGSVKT
# Lck = Lck (Homo sapiens, UniProt P06239); experiment: ExpresS Diversity Kinase Profile, Cerep (LANCE): Lck; assay type: biochemical
# Lck, sequence (P06239 whole entry): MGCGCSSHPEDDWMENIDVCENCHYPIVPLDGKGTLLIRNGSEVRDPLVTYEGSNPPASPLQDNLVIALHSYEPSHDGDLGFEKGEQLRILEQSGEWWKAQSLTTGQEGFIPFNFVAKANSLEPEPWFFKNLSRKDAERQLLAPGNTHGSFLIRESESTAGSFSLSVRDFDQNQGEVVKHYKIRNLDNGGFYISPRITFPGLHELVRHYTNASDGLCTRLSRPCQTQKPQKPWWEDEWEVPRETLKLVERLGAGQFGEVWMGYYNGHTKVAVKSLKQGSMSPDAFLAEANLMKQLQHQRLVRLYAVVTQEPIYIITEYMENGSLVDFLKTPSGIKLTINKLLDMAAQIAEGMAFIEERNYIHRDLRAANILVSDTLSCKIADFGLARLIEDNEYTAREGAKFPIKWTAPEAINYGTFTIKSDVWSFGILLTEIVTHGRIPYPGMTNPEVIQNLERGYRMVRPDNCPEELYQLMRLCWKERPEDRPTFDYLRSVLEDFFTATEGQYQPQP
# SIK = SIK (Homo sapiens, UniProt P57059); experiment: ExpresS Diversity Kinase Profile, Cerep (LANCE): SIK; assay type: biochemical; settings: 150 µM
# SIK, sequence (P57059 whole entry): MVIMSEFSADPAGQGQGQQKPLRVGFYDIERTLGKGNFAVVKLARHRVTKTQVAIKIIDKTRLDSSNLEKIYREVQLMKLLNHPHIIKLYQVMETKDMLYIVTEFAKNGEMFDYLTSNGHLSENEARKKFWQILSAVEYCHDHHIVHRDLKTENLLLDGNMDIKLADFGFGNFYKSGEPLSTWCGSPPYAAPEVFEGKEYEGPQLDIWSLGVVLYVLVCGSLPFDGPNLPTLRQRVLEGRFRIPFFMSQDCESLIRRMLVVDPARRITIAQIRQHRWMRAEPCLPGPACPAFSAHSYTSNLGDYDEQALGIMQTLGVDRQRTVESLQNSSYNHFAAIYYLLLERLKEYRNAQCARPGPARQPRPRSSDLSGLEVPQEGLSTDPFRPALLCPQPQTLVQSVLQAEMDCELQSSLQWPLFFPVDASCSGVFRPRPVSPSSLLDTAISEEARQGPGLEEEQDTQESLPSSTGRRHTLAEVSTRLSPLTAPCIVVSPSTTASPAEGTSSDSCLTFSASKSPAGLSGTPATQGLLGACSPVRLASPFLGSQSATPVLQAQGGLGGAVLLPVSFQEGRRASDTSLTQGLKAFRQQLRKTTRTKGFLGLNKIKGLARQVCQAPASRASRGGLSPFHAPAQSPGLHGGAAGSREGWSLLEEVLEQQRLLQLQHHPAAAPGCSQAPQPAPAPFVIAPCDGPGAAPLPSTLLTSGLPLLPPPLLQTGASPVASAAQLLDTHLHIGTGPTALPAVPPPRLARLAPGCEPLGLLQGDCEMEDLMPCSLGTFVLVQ
# [1] = read-out: % inhibition of control values, Mean
# [2] = Flag: Interference, read-out: % Inhibition of control values, 1st measurement
# [3] = Flag: Interference, read-out: % Inhibition of control values, 2nd measurement
# [4] = n = 2, Flag: Interference, read-out: % Inhibition of control values, Mean
smiles,measurement,setting,value
CC1(C)CCC2=C(O1)c1ccccc1C(=O)C2=O [β-Lapachone],ligand efficiency (LE),5-LO; 5-LO,0.44
same,inhibition at 5 µM,"5-LO; 5-LO, n = 2, read-out: % inhibition of control values, Mean",102%
same,inhibition at 5 µM,"5-LO; 5-LO, read-out: % inhibition of control values, 1st measure",103%
same,inhibition at 5 µM,"5-LO; 5-LO, read-out: % inhibition of control values, 2nd measure",99.8%
same,inhibition at 150 µM,"5-LO; 5-LO, 150 µM, read-out: % inhibition of control values, 1st measure",98.4%
same,inhibition at 150 µM,"5-LO; 5-LO, 150 µM, read-out: % inhibition of control values, 2nd measure",92.9%
same,IC50,"5-LO; 5-LO, indirect fluorogenic readout, read-out: Experimental –log(IC50 or KD) (converted)",2.51 µM
same,ligand efficiency (LE),"5-LO; 5-LO, listed as 1",> 0.30
same,pIC50,"5-LO; IC50, 5-LO, indirect fluorescence detection (Cerep), n = 2",5.68
same,inhibition at 150 µM,5-LO; [1],95.7%
same,inhibition at 5 µM,"12-LO; 12-LO, 5 µM, read-out: % inhibition of control values, 1st measure",40.7%
same,inhibition at 5 µM,"12-LO; 12-LO, 5 µM, read-out: % inhibition of control values, 2nd measure",35.3%
same,inhibition at 5 µM,12-LO; [1],38%
same,pIC50,TRPM8,< 4.00
same,inhibition at 150 µM,IKKα; [2],59.5%
same,inhibition at 150 µM,IKKα; [3],59.4%
same,inhibition at 150 µM,IKKα; [4],59.5%
same,inhibition at 150 µM,"PLK1; n = 2, read-out: % Inhibition of control values, Mean",60%
same,inhibition at 150 µM,"PLK1; read-out: % Inhibition of control values, 1st measurement",61.1%
same,inhibition at 150 µM,"PLK1; read-out: % Inhibition of control values, 2nd measurement",58.9%
same,inhibition at 150 µM,FGFR2; [2],44.8%
same,inhibition at 150 µM,FGFR2; [3],55.2%
same,inhibition at 150 µM,FGFR2; [4],50%
same,inhibition at 150 µM,Lck; [2],-32.6%
same,inhibition at 150 µM,Lck; [3],-37.7%
same,inhibition at 150 µM,Lck; [4],-35.2%
same,inhibition at 150 µM,SIK; [2],41.8%
same,inhibition at 150 µM,SIK; [3],40.3%
same,inhibition at 150 µM,SIK; [4],41%
